32 compounds from ChEMBL document CHEMBL5316342, “Structure-Based Design of Potent Iminosugar Inhibitors of Endoplasmic Reticulum α-Glucosidase I with Anti-SARS-CoV-2 Activity” (J Med Chem, 2023) can be followed below.

pEC50, pIC50: −log10 of the molar value. Activity calls are given as the source filed them. The calls are words filed in the database; no cut-off is given here.

Data set [1] in a line: Cytotoxicity against human A549-ACE2 cells infected with SARS-CoV-2 USA-WA1/2020 assessed as reduction in cell viability measured for 3 days by WST-1 assay. The class given is toxicity, cell-based. The note with it: a549-ace2, 72 h, time 3 day. (Formazan colour is commonly taken as a measure of viable cells.)
Data set [2] is described as follows: Inhibition of mouse recombinant alpha-glucosidase using 4-methylumbelliferyl-[…]-D-glucopyranoside as substrate preincubated for 60 mins followed by substrate addition and measured after 30 mins by fluorescence based analysis.
Data set [3] is described as follows: Cytotoxicity against human A549-ACE2 cells infected with SARS-CoV-2 USA-WA1/2020 assessed as reduction in cell viability at 25 uM measured for 3 days by WST-1 assay relative to control. The note with it: a549-ace2, 72 h, time 3 day. It counts as toxicity, cell-based.
Data set [4] in a line: Inhibition of C-terminal his6-tagged full length recombinant mouse Endoplasmic reticulum alpha-glucosidase 1 (59 to 834 residues) expressed in FreeStyle 293-F cells using trisaccharide as substrate preincubated for 60 mins followed by substrate addition and measured for 90 mins by Amplex Red assay.
The test system of data set [5] is SARS-CoV-2. As to the kind of experiment: Antiviral activity against SARS-CoV-2 USA-WA1/2020 infected in human A549-ACE2 cells assessed as reduction in viral burden measured upto 4 days by viral plaque assay. The settings on record: Severe acute respiratory syndrome coronavirus 2, USA-WA1/2020, A549-ACE2, 96 h. The class given is functional, organism-based.
Data set [6] has as its system SARS-CoV-2. The experiment in a line: Antiviral activity against SARS-CoV-2 USA-WA1/2020 infected in human A549-ACE2 cells assessed as maximum reduction in viral burden up to 100 uM measured upto 4 days by viral plaque assay. The class given is functional. The settings on record: Severe acute respiratory syndrome coronavirus 2, time <= 4.0 day.

In the case of `O=[N+]([O-])c1cc(NCCCCCCN2C[C@H](O)[C@@H](O)[C@H](O)[C@H]2CO)cc(-c2ccncc2)c1`, the half-maximal cytotoxic concentration (CC50) in data set [1] came to 54.2 µM. Besides, the results for the pIC50 in data set [2] and in data set [4] were greater than 9.00 and 9.00, respectively. Further, the Activity in data set [3] turned out to be 87.2%.
Regarding `O=[N+]([O-])c1cc(-c2noc(C3CCC3)n2)ccc1NCCCCCCN1C[C@H](O)[C@@H](O)[C@H](O)[C@H]1CO`, in data set [1], the CC50 came out at 40.7 µM. The pIC50 in data set [2] is greater than 9.00; in data set [4], 7.96. Also, the Activity in data set [3] worked out at 100%. The pEC50 in the data set with SARS-CoV-2 [5] is 6.14.
On to `COCCc1ccc(CCCCCN2C[C@H](O)[C@@H](O)[C@H](O)[C@H]2CO)cc1`, for which the pIC50 in data set [2] was 7.12; in data set [4], 5.93.
As for `OC[C@@H]1[C@@H](O)[C@H](O)[C@@H](O)CN1CCc1ccc(CCNc2cc(O)cc(-c3cccnn3)c2)cc1`, in data set [1], the 50% cytotoxic concentration (CC50) is greater than 100 µM. Also, the negative-log IC50 (pIC50) in data set [2] is greater than 9.00; in data set [4], 6.68. Further, the Activity in data set [3] is 93.5%.
Turning to `Cc1nc2cc(-c3ncccn3)ccc2n1CCCCCCN1C[C@H](O)[C@@H](O)[C@H](O)[C@H]1CO`, the CC50 in data set [1] was greater than 100 µM. Further, the pIC50 was 6.71 in data set [2] and 7.11 in data set [4]. Also, in data set [3], the Activity is on record as 80.8%. For the same compound, the pEC50 in the data set on SARS-CoV-2 [5] is 4.91.
As for `COCCCCCCCCCN1C[C@H](O)[C@@H](O)[C@H](O)[C@H]1CO`, the pIC50 in data set [2] was 7.17; in data set [4], 6.27.
Consider `Cc1cc(NCc2ccc(CN3C[C@H](O)[C@@H](O)[C@H](O)[C@H]3CO)cc2)cc(-c2cccnn2)c1`, for which the pIC50 in data set [2] is 6.75; in data set [4], 7.14. Also, in data set [3], the Activity is 73.7%. Also, the outcome in the data set on SARS-CoV-2 [6] was inactive.
The matching figures for `CS(=O)(=O)c1cc(NCc2cccc(CN3C[C@H](O)[C@@H](O)[C@H](O)[C@H]3CO)c2)cc(-c2ccccc2)c1`: 5.34, 7.77, 40.8% and “inactive”.
Turning to `CS(=O)(=O)c1cc(Br)cc(NCc2cccc(CN3C[C@H](O)[C@@H](O)[C@H](O)[C@H]3CO)c2)c1`, the CC50 in data set [1] is greater than 100 µM. For the same compound, the pIC50 in data set [2] is 5.10; in data set [4], 7.72. Moreover, in data set [3], the Activity is recorded as 100%.
With `OC[C@@H]1[C@@H](O)[C@H](O)[C@@H](O)CN1CCCCCCCCc1ccco1`, the CC50 in data set [1] is 35 µM. Moreover, the pIC50 in data set [2] is 7.46; in data set [4], 6.86. In data set [3], the Activity stood at 95.7%. Further, the pEC50 in the data set with SARS-CoV-2 [5] is 5.47.
Consider `CCCCN[C@H]1C[C@](O)(CO)[C@@H](O)[C@H](O)[C@H]1O`, for which, in data set [4], the pIC50 is 4.53.
On to `Cc1cc(NCc2cccc(CN3C[C@H](O)[C@@H](O)[C@H](O)[C@H]3CO)c2)cc(-c2ncccn2)c1`, for which the pIC50 was 4.18 in data set [2] and 7.36 in data set [4]. In data set [3], the Activity came to 52.9%. For the same compound, in the data set on SARS-CoV-2 [6], the result was inactive.
Consider `[N-]=[N+]=Nc1ccc(NCCOC(=O)NCCN[C@H]2C[C@](O)(CO)[C@@H](O)[C@H](O)[C@H]2O)c([N+](=O)[O-])c1`, for which the pIC50 in data set [4] was 5.95.
As for `O=[N+]([O-])c1cc(N2[C@@H]3CC[C@H]2COC3)ccc1NCc1ccc(CN2C[C@H](O)[C@@H](O)[C@H](O)[C@H]2CO)cc1`, the CC50 in data set [1] stood at 39.8 µM. The negative logarithm of the IC50 (pIC50) in data set [2] and in data set [4] was greater than 9.00 each time. Further, the Activity in data set [3] came out at 75%.
As to `O=[N+]([O-])c1cc(N2C3CCC2COC3)ccc1NCCCCCCN1C[C@H](O)[C@@H](O)[C@H](O)[C@H]1CO`, the CC50 in data set [1] was greater than 100 µM. The figures for the pIC50 in data set [2] and in data set [4] were 7.52 and 7.28, respectively. The Activity in data set [3] is on record as 98.9%. Moreover, in the data set on SARS-CoV-2 [5], the pEC50 was 5.79.
The matching figures for `Cc1cc(-c2ccco2)ccc1NCc1ccc(CN2C[C@H](O)[C@@H](O)[C@H](O)[C@H]2CO)cc1`: 29.5 µM, 6.50, greater than 9.00, 82.6% and less than 4.60.
For `N#Cc1cc(NCc2cccc(CN3C[C@H](O)[C@@H](O)[C@H](O)[C@H]3CO)c2)cc(C2=COCCO2)c1`, the CC50 in data set [1] was greater than 100 µM. Besides, the pIC50 was 5.57 in data set [2] and 8.52 in data set [4]. In addition, in data set [3], the Activity is listed as 100%.
As to `Cc1nc(-c2ccc(NCCCCCCN3C[C@H](O)[C@@H](O)[C@H](O)[C@H]3CO)c([N+](=O)[O-])c2)no1`, the cytotoxic concentration (CC50) in data set [1] is greater than 100 µM. Also, the pIC50 in data set [2] is 8.52; in data set [4], 7.00. Besides, the Activity in data set [3] is 100%. Also, the pEC50 with SARS-CoV-2 [5] was 6.36.
In the case of `OC[C@@H]1[C@@H](O)[C@H](O)[C@@H](O)CN1CCc1ccc(CCNc2cc(O)cc(-c3ncon3)c2)cc1`, in data set [1], the 50% cytotoxic concentration (CC50) is greater than 100 µM. Also, the negative logarithm of the IC50 (pIC50) in data set [2] was 6.53; in data set [4] it was 6.00. For the same compound, in data set [3], the Activity is given as 83.8%.
Take `O=[N+]([O-])c1cc(-n2cccn2)ccc1NCCCCCCN[C@H]1C[C@](O)(CO)[C@@H](O)[C@H](O)[C@H]1O`: in data set [1], the CC50 is greater than 100 µM. The Activity in data set [3] is 85.6%.
For `C[C@@H]1CN(c2ccc(NCc3ccc(CN4C[C@H](O)[C@@H](O)[C@H](O)[C@H]4CO)cc3)c([N+](=O)[O-])c2)C[C@H](C)O1`, the figures for the pIC50 in data set [2] and in data set [4] were 8.40 and 9.00, respectively. Moreover, the Activity in data set [3] came to 51.5%. Also, in the data set with SARS-CoV-2 [6], the outcome was inactive.
As for `[N-]=[N+]=Nc1ccc(NCCCCCCN2C[C@H](O)[C@@H](O)[C@H](O)[C@H]2CO)c([N+](=O)[O-])c1`, the CC50 in data set [1] is greater than 100 µM. In addition, the pIC50 in data set [2] is 8.00; in data set [4], 6.81. In data set [3], the Activity is listed as 100%. Besides, in the data set with SARS-CoV-2 [5], the pEC50 was 6.24.
As to `O=[N+]([O-])c1cc(-n2nccn2)ccc1NCCCCCCN[C@H]1C[C@](O)(CO)[C@@H](O)[C@H](O)[C@H]1O`, the results for the pIC50 in data set [2] and in data set [4] were greater than 9.00 and 7.33, respectively.
As to `OC[C@@H]1[C@@H](O)[C@H](O)[C@@H](O)CN1Cc1ccc(CNc2ccc(N3CCOCC3)cc2)cc1`, in data set [1], the CC50 is greater than 100 µM. Further, the pIC50 in data set [2] was 5.80; in data set [4], 6.91. Moreover, the Activity in data set [3] worked out at 97.6%.
As to `O=[N+]([O-])c1cc(-c2ccccc2)ccc1NCCCCCCN1C[C@H](O)[C@@H](O)[C@H](O)[C@H]1CO`, the CC50 in data set [1] is greater than 100 µM. Also, the pIC50 is greater than 9.00 in data set [2] and 7.24 in data set [4]. Besides, the Activity in data set [3] was 100%. Moreover, the pEC50 in the data set on SARS-CoV-2 [5] is 6.38.
Turning to `COCCCCCCCCCN1C[C@H](O)[C@@H](O)[C@H](O)[C@H]1CO.Cl`, in data set [1], the CC50 is greater than 100 µM. Besides, in data set [3], the Activity was 100%. The pEC50 with SARS-CoV-2 [5] was 5.48.
In the case of `O=[N+]([O-])c1cc(N2CCOCC2)ccc1NCc1cccc(CN2C[C@H](O)[C@@H](O)[C@H](O)[C@H]2CO)c1`, the pIC50 is 4.89 in data set [2] and 7.00 in data set [4]. For the same compound, the Activity in data set [3] is recorded as 36.5%. Further, in the data set on SARS-CoV-2 [6], the outcome was inactive.
Consider `CS(=O)(=O)c1cc(NCc2ccc(CN3C[C@H](O)[C@@H](O)[C@H](O)[C@H]3CO)cc2)cc(-c2cccnn2)c1`, for which the CC50 in data set [1] was greater than 100 µM. The results for the pIC50 in data set [2] and in data set [4] were 6.94 and 7.68, respectively. In addition, the Activity in data set [3] came out at 99.2%.
On to `[N-]=[N+]=Nc1ccc(NCCc2cncc(CCN3C[C@H](O)[C@@H](O)[C@H](O)[C@H]3CO)n2)c([N+](=O)[O-])c1`, for which the pIC50 was 8.52 in data set [2] and 7.03 in data set [4]. Moreover, in data set [3], the Activity amounted to 38.8%. Moreover, in the data set on SARS-CoV-2 [6], the outcome was inactive.
The matching figures for `O=[N+]([O-])c1cc(-c2ccnc(N3CCOCC3)n2)ccc1NCCCCCCN1C[C@H](O)[C@@H](O)[C@H](O)[C@H]1CO`: greater than 9.00, greater than 9.00, 58.6% and “inactive”.
For the compound `OC[C@@H]1[C@@H](O)[C@H](O)[C@@H](O)CN1CCCCCCNc1cc(-c2cccnn2)cc(C2CC2)c1`, the CC50 in data set [1] was greater than 100 µM. The pIC50 in data set [2] is 7.92; in data set [4] it was 6.99. Besides, the Activity in data set [3] was 100%. Moreover, the negative-log EC50 (pEC50) with SARS-CoV-2 [5] was 5.10.
Regarding `Cc1cc(NCc2cccc(CN3C[C@H](O)[C@@H](O)[C@H](O)[C@H]3CO)n2)cc(-c2ccc[nH]2)c1`, the results for the pIC50 in data set [2] and in data set [4] were less than 4.00 and 6.02, respectively. The Activity in data set [3] is 54.1%. For the same compound, in the data set with SARS-CoV-2 [6], the result was inactive.

One may read the CC50 as the concentration at which the toxic effect on the cells reaches its halfway point. In general, pIC50 refers to the IC50 on a negative log10 scale, so that one unit is a factor of ten. By pEC50 is commonly meant the negative decadic logarithm of the EC50, by convention in mol/L.
